In test [1] the target is T1, TbPTR1 (Trypanosoma brucei brucei, UniProt O76290).
T1 sequence (O76290 1-268): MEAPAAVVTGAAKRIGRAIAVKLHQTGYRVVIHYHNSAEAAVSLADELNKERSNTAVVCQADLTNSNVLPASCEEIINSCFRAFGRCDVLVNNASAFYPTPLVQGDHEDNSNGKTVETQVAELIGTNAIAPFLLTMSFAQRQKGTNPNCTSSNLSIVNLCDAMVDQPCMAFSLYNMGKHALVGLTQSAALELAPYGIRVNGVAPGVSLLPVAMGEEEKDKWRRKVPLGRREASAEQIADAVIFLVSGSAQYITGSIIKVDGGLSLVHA
Put plainly: TbPTR1 inhibition, Cytochrome C coupled spectrophotometric assay. Conditions: for inhibition at 10 µM: primary screening, read-out: percentage of inhibition TbPTR1; for IC50: recombinant protein, standard errors within ± 10%. The format is biochemical.

For test [2], the target named is T2, LmPTR1 (Leishmania major, UniProt Q01782).
T2 sequence (Q01782 1-288): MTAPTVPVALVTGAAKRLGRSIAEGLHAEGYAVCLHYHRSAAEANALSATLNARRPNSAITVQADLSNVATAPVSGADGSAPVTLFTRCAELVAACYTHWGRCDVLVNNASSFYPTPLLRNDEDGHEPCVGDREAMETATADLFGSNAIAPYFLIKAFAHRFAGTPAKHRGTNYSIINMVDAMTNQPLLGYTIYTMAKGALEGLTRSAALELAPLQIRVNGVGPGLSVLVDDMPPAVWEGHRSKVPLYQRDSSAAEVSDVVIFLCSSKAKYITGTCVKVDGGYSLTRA
Put plainly: LmPTR1 inhibition, Cytochrome C coupled spectrophotometric assay. The format is biochemical. Conditions: for IC50: recombinant protein, standard errors within ± 10%; for inhibition at 10 µM: primary screening, read-out: percentage of inhibition LmPTR1.

Test [3] deals with TbDHFR-TS (Trypanosoma brucei brucei, UniProt Q27783). Put plainly: TbDHFR-TS inhibition, spectrophotometric DHF reduction assay (dose-response). The conditions noted are these: recombinant TbDHFR-TS; 40, 20 and 10 µM tested; standard errors within ± 10%. The format is biochemical.
Sequence of TbDHFR-TS (Q27783 whole entry): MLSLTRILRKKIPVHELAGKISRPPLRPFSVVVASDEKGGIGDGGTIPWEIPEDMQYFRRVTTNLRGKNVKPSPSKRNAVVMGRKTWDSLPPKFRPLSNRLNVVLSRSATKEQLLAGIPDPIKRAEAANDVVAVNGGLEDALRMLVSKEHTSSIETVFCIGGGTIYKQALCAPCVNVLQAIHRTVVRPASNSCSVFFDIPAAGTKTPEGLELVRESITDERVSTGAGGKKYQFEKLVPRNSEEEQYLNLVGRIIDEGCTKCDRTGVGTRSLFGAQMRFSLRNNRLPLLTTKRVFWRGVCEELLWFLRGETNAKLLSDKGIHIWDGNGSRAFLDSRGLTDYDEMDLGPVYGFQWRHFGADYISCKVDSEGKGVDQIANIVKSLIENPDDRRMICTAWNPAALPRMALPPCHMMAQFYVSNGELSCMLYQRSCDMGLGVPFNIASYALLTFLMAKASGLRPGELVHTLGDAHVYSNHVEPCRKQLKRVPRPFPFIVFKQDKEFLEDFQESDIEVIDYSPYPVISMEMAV
In test [4] the target is LmDHFR-TS (Leishmania major, UniProt P07382). Briefly: LmDHFR-TS inhibition, spectrophotometric DHF reduction assay (dose-response). Conditions: recombinant LmDHFR-TS; 40, 20 and 10 µM tested; standard errors within ± 10%. The test is classed as biochemical.
Sequence of LmDHFR-TS (P07382 whole entry): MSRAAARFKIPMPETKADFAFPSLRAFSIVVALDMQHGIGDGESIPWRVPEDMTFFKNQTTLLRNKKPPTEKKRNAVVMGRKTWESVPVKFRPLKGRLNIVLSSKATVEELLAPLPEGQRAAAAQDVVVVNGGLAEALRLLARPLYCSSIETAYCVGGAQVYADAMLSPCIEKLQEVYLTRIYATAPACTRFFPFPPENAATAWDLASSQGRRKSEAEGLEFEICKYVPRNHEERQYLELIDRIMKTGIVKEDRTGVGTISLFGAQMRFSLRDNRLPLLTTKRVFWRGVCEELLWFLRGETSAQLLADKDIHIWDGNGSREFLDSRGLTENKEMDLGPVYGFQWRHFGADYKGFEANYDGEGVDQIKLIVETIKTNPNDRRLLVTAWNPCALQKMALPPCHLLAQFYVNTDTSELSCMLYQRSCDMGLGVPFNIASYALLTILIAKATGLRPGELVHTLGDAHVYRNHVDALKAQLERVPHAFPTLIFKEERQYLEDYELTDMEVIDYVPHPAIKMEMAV
Test [5] deals with T. brucei. The arrangement: method as in PMID 25740547. The conditions noted are these: parasite growth inhibition, data from open resource GSK database ref 21, cited from earlier work.
Test [6] deals with L. donovani. The arrangement: method as in PMID 25740547. The conditions noted are these: parasite growth inhibition, data from open resource GSK database ref 21, cited from earlier work.
Test [7] deals with T. cruzi. The arrangement: method as in PMID 25740547. Conditions: parasite growth inhibition ref 21; cited from earlier work.

“Also recorded” adds a separate entry of the source. Where two headings read alike, the source gives them in different places.

For the compound `Cc1ccc2c(c1)-c1onc(C(=O)N3CCCC[C@H]3c3cccnc3)c1CO2` [TCMDC-143191], the inhibition at 10 µM in test [1] stood at 51%. For the same compound, the IC50 is 9.8 µM in test [1], 38.5 µM in test [2], above 40 µM in test [3] and above 40 µM in test [4]. The EC50 in test [5] was 39.8 µM; in test [6], above 40 µM.

In the case of `CN(Cc1cc2ccccc2s1)c1ncc2c(N)nc(N)nc2n1` [TCMDC-143232], the IC50 in test [1] was 10.9 µM; in test [2], 5.9 µM; in test [3] it was above 40 µM; in test [4], 24.4 µM. In addition, in test [3], the “IC50 TbDHFR” value is on record as “not active”. Further, the 50% effective concentration (EC50) in test [5] was 28.4 µM; in test [6], 29.5 µM.

For `N#Cc1cccc(Nc2nccc(N3CCC(NS(=O)(=O)c4cccc(C#N)c4)CC3)n2)c1` [TCMDC-143249], the IC50 was 13.5 µM in test [1], 6 µM in test [2], above 40 µM in test [3] and above 40 µM in test [4]. Also, the figures for the concentration for a half-maximal effect (EC50) in test [7], in test [5] and in test [6] were 4.2 µM, 6.3 µM and 5.6 µM, respectively. In test [3], the “IC50 TbDHFR” value is “inactive; also recorded: no inhibition”. The “IC50 LmDHFR” value in test [4] is “inactive; also recorded: no inhibition”.

Take `COc1ccc(Oc2ccc(C(C)N(C)c3ncc4c(N)nc(N)nc4n3)cc2)cc1` (centres unmarked) [TCMDC-143295]: the IC50 is 7.9 µM in test [1], 6.7 µM in test [2], above 40 µM in test [3] and 16.6 µM in test [4]. Besides, in test [3], the “IC50 TbDHFR” value is recorded as “not active”. Moreover, the EC50 in test [6] is 0.06 µM.

Turning to `CC(c1ccc2c(c1)CCCC2)N(C)c1ncc2c(N)nc(N)nc2n1` (centres unmarked) [TCMDC-143296], the half-maximal inhibitory concentration (IC50) stood at 8.6 µM in test [1], 6.5 µM in test [2], 9.7 µM in test [3] and 6.9 µM in test [4]. For the same compound, the EC50 in test [5] was 14.2 µM; in test [6], 1.8 µM.

Turning to `CC(c1cc(Cl)cc(Cl)c1)N(C)c1ncc2c(N)nc(N)nc2n1` (centres unmarked) [TCMDC-143297], the IC50 is 9.8 µM in test [1], 5.7 µM in test [2], 11.6 µM in test [3] and 20.1 µM in test [4]. The 50% effective concentration (EC50) in test [5] is 35.7 µM; in test [6], 0.6 µM.

In the case of `COc1ccc(C(C)N(C)c2ncc3c(N)nc(N)nc3n2)cc1F` (centres unmarked) [TCMDC-143298], the IC50 was 8.1 µM in test [1], 6 µM in test [2], above 40 µM in test [3] and above 40 µM in test [4]. The “IC50 TbDHFR” value in test [3] is listed as “did not show any activity”. In addition, the “IC50 LmDHFR” value in test [4] was “did not show any activity”. In addition, the concentration for a half-maximal effect (EC50) in test [5] was 8.8 µM; in test [6], 10.8 µM.

Take `O=C1NCCn2ccc(Nc3nc(N[C@H]4CC[C@H](O)CC4)ncc3Cl)c21` [TCMDC-143386]: the IC50 is 35 µM in test [1], 6.7 µM in test [2], above 40 µM in test [3] and 25.8 µM in test [4]. The inhibition at 10 µM in test [2] stood at 75%. Also, the EC50 in test [5] is 0.6 µM; in test [6], 1.4 µM.

Turning to `Cc1nc2c(-c3ncn[nH]3)cc(NC(=O)Cc3ccccc3)cn2c1C` [TCMDC-143459], in test [1], the inhibition at 10 µM was 51%. For the same compound, the 50% inhibitory concentration (IC50) was 9.8 µM in test [1], above 40 µM in test [2], above 40 µM in test [3] and above 40 µM in test [4]. Further, the EC50 in test [5] was 6.6 µM; in test [6], 0.5 µM.

For `CCN(Cc1nc2ccc(C(=O)N3CCN(c4ncccn4)CC3)cc2[nH]1)C1CCCc2cccnc21` (centres unmarked) [TCMDC-143518], the IC50 in test [1] is 33.3 µM; in test [2], 8.5 µM; in test [3], above 40 µM; in test [4] it was 25 µM. Also, the inhibition at 10 µM in test [2] was 59%. The concentration giving a half-maximal response (EC50) in test [5] was 3.8 µM; in test [6], 3.5 µM.

On to `CCCc1nc2nc(N)nc(N)c2cc1CC` [TCMDC-143606], for which the IC50 was around 6 µM in test [1]; 6.4 µM in test [1] (listed as 143606); around 6 µM in test [2]; 6.8 µM in test [2] (listed as 143606); above 40 µM in test [3]; 19.4 µM in test [4]. Further, the EC50 in test [5] was around 20 µM; in test [5] (listed as 143606) it was 22.5 µM; in test [6], around 20 µM; in test [6] (listed as 143606), 27.2 µM.

For `Cc1cc(-c2ccc3ccccc3c2)nc2nc(N)nc(N)c12` [TCMDC-143607], the IC50 was 7.3 µM in test [1], 8.1 µM in test [2], above 40 µM in test [3] and above 40 µM in test [4]. For the same compound, the concentration for a half-maximal effect (EC50) in test [5] was 25.8 µM; in test [6] it was 2.7 µM.

On to `COc1ccccc1-c1c(C)[nH]c2nc(N)nc(C)c12` [TCMDC-143610], for which the IC50 in test [1] was determined as 7.3 µM; in test [2], 9.3 µM; in test [3], 38.2 µM; in test [4] it was 40 µM. The EC50 in test [5] was 32.5 µM; in test [6], 17.9 µM.

In the case of `Cc1cc(N(C)C)nc2ccc(Cc3cnc(N)nc3N)cc12` [TCMDC-143611], the IC50 in test [1] was 8.9 µM; in test [2], 9.8 µM; in test [3], above 40 µM; in test [4], above 40 µM. Also, the EC50 is 5 µM in test [5] and above 40 µM in test [6].

Source of the values: paper PMC8704748, “Repurposing the Trypanosomatidic GSK Kinetobox for the Inhibition of Parasitic Pteridine and Dihydrofolate Reductases” (Pharmaceuticals, 2021).
